Measurements taken from the NIST ThermoML archive (doi:10.1021/je034290l).

Columns and labels:
[1] = Liquid
[2] = refractive index (Na D-line) (dimensionless); details: 318.15 K; 101.33 kPa; Liquid; Standard Abbe refractometry

COC(C)=O [methyl ethanoate]
[1]
Details	vapor or sublimation pressure [kPa]
305.21 K	39.85
305.85 K	41.28
306.84 K	42.46
307.84 K	44.04
308.13 K	45.37
308.75 K	46.97
309.72 K	48.14
310.17 K	49.41
311.19 K	50.42
311.59 K	51.81
312.76 K	53.53
313.38 K	54.58
313.74 K	55.9
314.18 K	57.49
314.88 K	58.59
315.56 K	60.05
316.06 K	61.43
316.57 K	62.5
317.05 K	63.9
318.34 K	66.51
318.69 K	67.81
319.37 K	69.23
319.93 K	70.45
320.11 K	71.01
320.34 K	71.9
320.65 K	73.35
321.34 K	74.58
321.46 K	75.27
321.72 K	76.13
322.07 K	77.22
322.36 K	77.87
322.62 K	78.83
323.07 K	80.15
323.49 K	81.23
324.29 K	82.59
324.58 K	83.84
324.95 K	85.23
325.33 K	86.76
325.71 K	87.86
326.25 K	89.23
326.63 K	90.98
327.08 K	92.06
327.54 K	93.46
328 K	94.82
328.17 K	96.1
328.96 K	97.67
329.38 K	99.14
329.55 K	100.18
329.86 K	101.32
330.09 K	102.6
330.43 K	104.14
330.97 K	105.19
331.43 K	106.75
331.76 K	107.92
332.06 K	109.42
332.52 K	110.71
332.77 K	112.16
333.1 K	113.39
333.6 K	114.47
333.94 K	115.87
334.06 K	117.43
334.27 K	118.52
334.73 K	120.12
335.06 K	121.46
335.23 K	122.57
335.73 K	123.95
336.07 K	125.35
336.48 K	126.88
336.86 K	127.85
337.19 K	129.37
337.53 K	130.87
337.78 K	131.93
337.9 K	133.48
338.15 K	134.72
338.66 K	136.16
338.82 K	137.37
339.07 K	138.56
339.41 K	140.07
339.66 K	141.45
339.95 K	142.53
340.33 K	144.04
340.49 K	145.51
340.95 K	146.43
341.08 K	147.88
341.45 K	149.13
341.79 K	150.58
342 K	151.93
342.37 K	153.34
342.46 K	154.61
342.85 K	155.92
343.21 K	157.52
343.36 K	158.57
343.46 K	160.01
343.67 K	161.1
344.09 K	162.7
344.46 K	164.2
344.67 K	165.28
344.88 K	166.78
345.05 K	168.02
345.26 K	169.24
345.47 K	170.37
345.84 K	171.92
345.96 K	173.2

Details	mass density [kg/m3]
[1], 318.15 K, 101.33 kPa	900.19

Details	refractive index
[2]	1.3486
